According to ChEMBL document CHEMBL1125575, “2-[(2-pyridylmethyl)sulfinyl]-1H-thieno[3,4-d]imidazoles. A novel class of gastric H+/K(+)-ATPase inhibitors” (J Med Chem, 1992):

Experiments:
Oryctolagus cuniculus = organism: Oryctolagus cuniculus; assay: cells; assay type: functional, organism-based, Stomach
Description: In vitro inhibition of 14C amino-pyrine uptake was determined in isolated rabbit gastric glands after dbcAMP stimulation

Canis familiaris = organism: Canis familiaris; assay: animal or person; details: Canis lupus familiaris, Stomach, intraduodenal, read-out: Inhibition
Rattus norvegicus = organism: Rattus norvegicus; assay: animal or person; details: Stomach, iv, read-out: Inhibition
animal or person = details: Canis lupus familiaris, Stomach, iv, read-out: Inhibition
[1] = biological target: Potassium-transporting ATPase alpha chain 1 (Sus scrofa, UniProt P19156)
Sequence of Potassium-transporting ATPase alpha chain 1 (P19156 whole entry): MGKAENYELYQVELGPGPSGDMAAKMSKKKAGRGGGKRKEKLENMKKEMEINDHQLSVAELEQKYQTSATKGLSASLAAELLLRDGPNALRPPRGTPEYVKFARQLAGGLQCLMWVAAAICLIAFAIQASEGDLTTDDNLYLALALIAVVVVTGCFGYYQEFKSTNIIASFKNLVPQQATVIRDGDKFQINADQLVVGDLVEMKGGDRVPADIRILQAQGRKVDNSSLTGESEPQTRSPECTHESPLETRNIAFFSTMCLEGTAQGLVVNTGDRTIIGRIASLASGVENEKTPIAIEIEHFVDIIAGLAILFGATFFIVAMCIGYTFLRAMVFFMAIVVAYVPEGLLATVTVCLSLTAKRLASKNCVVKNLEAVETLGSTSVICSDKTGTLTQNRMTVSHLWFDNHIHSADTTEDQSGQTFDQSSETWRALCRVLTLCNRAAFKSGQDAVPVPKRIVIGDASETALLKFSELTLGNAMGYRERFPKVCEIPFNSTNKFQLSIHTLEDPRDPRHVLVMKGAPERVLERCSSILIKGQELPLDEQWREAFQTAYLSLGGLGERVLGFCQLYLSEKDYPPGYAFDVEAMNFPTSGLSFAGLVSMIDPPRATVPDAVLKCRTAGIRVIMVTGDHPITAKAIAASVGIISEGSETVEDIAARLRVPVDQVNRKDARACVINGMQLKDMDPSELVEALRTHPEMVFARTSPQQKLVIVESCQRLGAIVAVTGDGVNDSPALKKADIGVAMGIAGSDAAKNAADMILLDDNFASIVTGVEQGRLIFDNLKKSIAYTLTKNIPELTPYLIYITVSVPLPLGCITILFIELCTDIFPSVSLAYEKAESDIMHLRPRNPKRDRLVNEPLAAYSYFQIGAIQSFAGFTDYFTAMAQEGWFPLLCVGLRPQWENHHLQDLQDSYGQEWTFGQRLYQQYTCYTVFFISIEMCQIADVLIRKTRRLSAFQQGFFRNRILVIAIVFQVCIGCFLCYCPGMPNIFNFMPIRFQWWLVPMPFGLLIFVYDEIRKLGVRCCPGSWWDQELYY
Description: In vitro inhibitory concentration against H+/K+ ATPase from pig stomach by probit analysis

Description for physchem: pKa value of the compound

Compound | IC50 (Oryctolagus cuniculus; Stomach) [µM] | inhibition in vivo at 0.5 mg/kg (Rattus norvegicus) [%] | inhibition in vivo at 0.3 mg/kg (animal or person) [%] | also measured
[O-][S+](Cc1ncccc1Cl)c1nc2cscc2[nH]1 (stereo not given) | 1 |  |  | 
[O-][S+](Cc1cc(OCc2ccc(C(F)(F)F)cc2)ccn1)c1nc2cscc2[nH]1 (stereo not given) | 0.6 | 80 |  | pKa (physchem): 3.74; inhibition in vivo at 1 mg/kg (Canis familiaris): 94%
[O-][S+](Cc1ccccn1)c1nc2c(-c3ccccc3)scc2[nH]1 (stereo not given) | 31 |  |  | 
COc1ccc(-c2scc3[nH]c([S+]([O-])Cc4ncc(C)c(OC)c4C)nc23)cc1 (stereo not given) | 3 | 24 |  | 
[O-][S+](Cc1cc(OCc2ccccc2)ccn1)c1nc2cscc2[nH]1 (stereo not given) | 0.5 |  |  | 
[O-][S+](Cc1ncccc1OC(F)F)c1nc2cscc2[nH]1 (stereo not given) | 1000 |  |  | 
[O-][S+](Cc1cc(OCC(F)(F)C(F)F)ccn1)c1nc2cscc2[nH]1 (stereo not given) | 2 | 89 | 66 | inhibition in vivo at 1 mg/kg (Canis familiaris): 91%
[O-][S+](Cc1cc(OCC(F)(F)C(F)(F)C(F)(F)C(F)F)ccn1)c1nc2cscc2[nH]1 (stereo not given) | 3 |  |  | IC50 [1]: 2 µM
[O-][S+](Cc1ncccc1OCC(F)(F)F)c1nc2cscc2[nH]1 (stereo not given) | 120 | 23 |  | 
COc1ccnc(C[S+]([O-])c2nc3cscc3[nH]2)c1 (stereo not given) | 19 | 82 | 84 | pKa (physchem): 4.16
[O-][S+](Cc1ncccc1F)c1nc2cscc2[nH]1 (stereo not given) | 1000 |  |  | 
[O-][S+](Cc1ccc(Cl)cn1)c1nc2cscc2[nH]1 (stereo not given) | 1000 | 26 |  | 
Cc1sc(C)c2[nH]c([S+]([O-])Cc3cc(OCC(F)(F)C(F)(F)C(F)(F)F)ccn3)nc12 (stereo not given) | 26 |  |  | 
CCCOc1ccnc(C[S+]([O-])c2nc3cscc3[nH]2)c1Cl (stereo not given) | 3 |  |  | 
CC(C)Oc1ccnc(C[S+]([O-])c2nc3cscc3[nH]2)c1Cl (stereo not given) | 1 | 80 | 87 | 
COC(=O)c1sc2[nH]c([S+]([O-])Cc3cc(OC)ccn3)nc2c1C(=O)OC (stereo not given) | 1000 |  |  | 
[O-][S+](Cc1cc(OC(C(F)(F)F)C(F)(F)F)ccn1)c1nc2cscc2[nH]1 (stereo not given) | 195 | 39 |  | pKa (physchem): 3.5
COc1ccnc(C[S+]([O-])c2nc3cscc3[nH]2)c1Br (stereo not given) | 2 | 71 | 73 | pKa (physchem): 3.52; inhibition in vivo at 1 mg/kg (Canis familiaris): -11%
COc1ccc(C[S+]([O-])c2nc3cscc3[nH]2)nc1 (stereo not given) | 1000 | 38 |  | 
CCOc1ccnc(C[S+]([O-])c2nc3cscc3[nH]2)c1 (stereo not given) | 3 |  |  | pKa (physchem): 3.92
Cc1cnc(C[S+]([O-])c2nc3cscc3[nH]2)c(C)c1 (stereo not given) | 50 |  | 91 | 
[O-][S+](Cc1cc(OCc2cc(Cl)cc(Cl)c2)ccn1)c1nc2cscc2[nH]1 (stereo not given) | 1.1 | 64 |  | 
COc1c(OCc2cc(C(F)(F)F)cc(C(F)(F)F)c2)ccnc1C[S+]([O-])c1nc2cscc2[nH]1 (stereo not given) | 0.5 | 65 |  | 

Compound | IC50 (Oryctolagus cuniculus; Stomach) [µM] | inhibition in vivo at 0.5 mg/kg (Rattus norvegicus) [%] | inhibition in vivo at 0.3 mg/kg (animal or person) [%] | also measured
COc1c(OCC(F)(F)C(F)(F)C(F)(F)C(F)F)ccnc1C[S+]([O-])c1nc2cscc2[nH]1 (stereo not given) | 1 | 64 |  | inhibition in vivo at 1 mg/kg (Canis familiaris): 63%; IC50 [1]: 12 µM
COc1c(OCc2ccc(C(F)(F)F)cc2)ccnc1C[S+]([O-])c1nc2cscc2[nH]1 (stereo not given) | 0.5 | 51 |  | inhibition in vivo at 1 mg/kg (Canis familiaris): 91%
[O-][S+](Cc1cc(OCc2ccc(F)cc2F)ccn1)c1nc2cscc2[nH]1 (stereo not given) | 1 | 76 |  | 
Cc1sc(C)c2[nH]c([S+]([O-])Cc3ccccn3)nc12 (stereo not given) | 15 |  |  | 
Cc1cnc(C[S+]([O-])c2nc3cscc3[nH]2)cc1OCC(F)(F)F (stereo not given) | 1 | 69 | 83 | inhibition in vivo at 1 mg/kg (Canis familiaris): 92%
COC(=O)c1sc2[nH]c([S+]([O-])Cc3ccccn3)nc2c1C(=O)OC (stereo not given) | 1000 |  |  | 
[O-][S+](Cc1nccc(OCC(F)(F)C(F)(F)F)c1Cl)c1nc2cscc2[nH]1 (stereo not given) | 10 |  |  | 
Cc1cccnc1C[S+]([O-])c1nc2cscc2[nH]1 (stereo not given) | 25 |  |  | 
Cc1c(OCC(F)(F)C(F)(F)F)ccnc1C[S+]([O-])c1nc2cscc2[nH]1 (stereo not given) | 0.5 | 72 | 64 | inhibition in vivo at 1 mg/kg (Canis familiaris): 45%
COc1c(C)cnc(C[S+]([O-])c2nc3cscc3[nH]2)c1C (stereo not given) | 1000 |  |  | 
[O-][S+](Cc1nccc(OCC(F)(F)F)c1Cl)c1nc2cscc2[nH]1 (stereo not given) | 1000 |  |  | 
[O-][S+](Cc1cc(OCc2cc(C(F)(F)F)cc(C(F)(F)F)c2)ccn1)c1nc2cscc2[nH]1 (stereo not given) | 1.1 | 43 |  | inhibition in vivo at 1 mg/kg (Canis familiaris): 87%
[O-][S+](Cc1cc(OCc2ccc(Cl)cc2)ccn1)c1nc2cscc2[nH]1 (stereo not given) | 0.4 | 78 |  | 
CCOc1ccnc(C[S+]([O-])c2nc3cscc3[nH]2)c1Cl (stereo not given) | 2 |  |  | 
[O-][S+](Cc1cc(OCC(F)(F)C(F)(F)F)c(Cl)cn1)c1nc2cscc2[nH]1 (stereo not given) |  | 38 |  | 
COc1ccnc(C[S+]([O-])c2nc3cscc3[nH]2)c1C (stereo not given) | 1000 |  |  | 
[O-][S+](Cc1nccc(OCC(F)(F)F)c1OCC(F)(F)F)c1nc2cscc2[nH]1 (stereo not given) | 0.8 | 35 | 13 | inhibition in vivo at 1 mg/kg (Canis familiaris): 45%
Cc1cccc(C[S+]([O-])c2nc3cscc3[nH]2)n1 (stereo not given) | 300 |  |  | 
[O-][S+](Cc1cc(OCC(F)(F)F)ccn1)c1nc2cscc2[nH]1 (stereo not given) | 3 | 96 | 62 | pKa (physchem): 3.83; inhibition in vivo at 1 mg/kg (Canis familiaris): 73%
[O-][S+](Cc1cc(Oc2ccc(F)cc2F)ccn1)c1nc2cscc2[nH]1 (stereo not given) | 0.3 | 56 | 74 | 
COCCOc1ccnc(C[S+]([O-])c2nc3cscc3[nH]2)c1Cl (stereo not given) |  | 63 |  | 
COc1cc(C[S+]([O-])c2nc3cscc3[nH]2)ncc1Cl (stereo not given) | 31 | 58 | 38 | pKa (physchem): 3.44; inhibition in vivo at 1 mg/kg (Canis familiaris): 55%
COc1ccnc(C[S+]([O-])c2nc3c(C)sc(C)c3[nH]2)c1 (stereo not given) | 12 |  | 66 | 

Compound | IC50 (Oryctolagus cuniculus; Stomach) [µM] | inhibition in vivo at 0.5 mg/kg (Rattus norvegicus) [%] | inhibition in vivo at 0.3 mg/kg (animal or person) [%] | also measured
COc1ccnc(C[S+]([O-])c2nc3ccsc3[nH]2)c1 (stereo not given) | 1000 |  |  | 
[O-][S+](Cc1nccc(Oc2ccccc2)c1Cl)c1nc2cscc2[nH]1 (stereo not given) | 61 | 0 |  | 
[O-][S+](Cc1cc(Oc2cccc(C(F)(F)F)c2)ccn1)c1nc2cscc2[nH]1 (stereo not given) | 2.2 | 64 |  | inhibition in vivo at 1 mg/kg (Canis familiaris): 66%
[O-][S+](Cc1cc(Oc2ccc(F)cc2)ccn1)c1nc2cscc2[nH]1 (stereo not given) | 4 | 84 | 85 | inhibition in vivo at 1 mg/kg (Canis familiaris): 97%
Cc1sc(C)c2[nH]c([S+]([O-])Cc3cc(OCC(F)(F)C(F)(F)F)ccn3)nc12 (stereo not given) | 1 |  |  | 
[O-][S+](Cc1cc(OCc2cc(F)cc(F)c2)ccn1)c1nc2cscc2[nH]1 (stereo not given) | 0.7 | 70 |  | inhibition in vivo at 1 mg/kg (Canis familiaris): 96%
[O-][S+](Cc1cc(Oc2ccc(Cl)c(Cl)c2)ccn1)c1nc2cscc2[nH]1 (stereo not given) | 2.3 | 49 | 62 | 
Cc1sc(C)c2[nH]c([S+]([O-])Cc3nccc(OC(C)C)c3Cl)nc12 (stereo not given) | 2.5 | 32 |  | 
COc1c(C)cnc(C[S+]([O-])c2nc3cscc3[nH]2)c1Cl (stereo not given) |  | 43 | 52 | 
COc1c(OCC(F)(F)C(F)(F)C(F)(F)F)ccnc1C[S+]([O-])c1nc2cscc2[nH]1 (stereo not given) |  | 70 |  | inhibition in vivo at 1 mg/kg (Canis familiaris): 66%; IC50 (Oryctolagus cuniculus): 1.1 µM; IC50 [1]: 7 µM
Cc1sc(C)c2[nH]c([S+]([O-])Cc3cc(OCC(F)(F)F)ccn3)nc12 (stereo not given) | 3.7 |  | 54 | IC50 [1]: 2 µM
COc1cc(C[S+]([O-])c2nc3cscc3[nH]2)ncc1Br (stereo not given) | 19 | 62 | 59 | inhibition in vivo at 1 mg/kg (Canis familiaris): 53%
COc1ccnc(C[S+]([O-])c2nc3cscc3[nH]2)c1OC (stereo not given) | 3.6 | 54 | 82 | 
CC(=O)c1scc2[nH]c([S+]([O-])Cc3cc(OCC(F)(F)F)ccn3)nc12 (stereo not given) | 32 |  |  | 
[O-][S+](Cc1cc(OC(F)F)ccn1)c1nc2cscc2[nH]1 (stereo not given) |  |  |  | IC50 (Oryctolagus cuniculus): 1000 µM
COc1c(OCc2ccc(F)cc2)ccnc1C[S+]([O-])c1nc2cscc2[nH]1 (stereo not given) | 0.3 | 78 | 73 | inhibition in vivo at 1 mg/kg (Canis familiaris): 76%
COc1ccnc(C[S+]([O-])c2nc3cscc3[nH]2)c1OC(F)(F)C(F)F (stereo not given) | 3 | 51 | 65 | inhibition in vivo at 1 mg/kg (Canis familiaris): 14%
[O-][S+](Cc1cc(OCC(F)(F)C(F)(F)F)ccn1)c1nc2cscc2[nH]1 (stereo not given) | 1 | 81 |  | 
CCCCOc1ccnc(C[S+]([O-])c2nc3cscc3[nH]2)c1 (stereo not given) | 1 | 81 | 87 | 
[O-][S+](Cc1cc(Oc2ccc(Cl)cc2)ccn1)c1nc2cscc2[nH]1 (stereo not given) | 2 | 66 | 76 | 
Cc1ccc(C[S+]([O-])c2nc3c(C)sc(C)c3[nH]2)nc1 (stereo not given) | 6 | 58 | 46 | 
COc1c(C)cnc(C[S+]([O-])c2nc3c(-c4ccccc4)scc3[nH]2)c1C (stereo not given) | 4.2 | 46 |  | inhibition in vivo at 1 mg/kg (Canis familiaris): 39%
